Source: the supplement of paper PMC10307832

Key:
Test in all cases: relative viability (nuclei count vs DMSO), 5 days (fraction); higher = more cells survive
[1] = compound: Cn1cncc1[C@@](N)(c1ccc(Cl)cc1)c1ccc2c(c1)c(-c1cccc(Cl)c1)cc(=O)n2C [Tipifarnib]
How it was run: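 In 1536-well plates, lung cancer cell lines rested overnight at 37 °C before five library-drug doses (not always all listed), √10 apart, were pinned onto vehicle-anchored plates. Nuclei were counted with MetaXpress from 4× Hoechst images taken after 5 days without medium change. Viability compares treated-well with vehicle-well nuclei as a median over plates, and plates needed control CV below 25% plus at least one doubling to pass.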

[2] = compound: Cn1cncc1[C@@](N)(c1ccc(Cl)cc1)c1ccc2c(c1)c(-c1cccc(Cl)c1)cc(=O)n2C [Tipifarnib] + N=C(N)NC(=N)NCCc1ccccc1 [Phenformin] (partner 250 µM)
How it was run: (§1)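 Lung cancer cell lines were seeded in 1536-well plates and dosed by pin tool the next day, with either a single drug or a fixed anchor-drug dose combined with five library-drug doses (not always all listed) spaced in √10 steps. Five days later, one step fixed the cells and stained their nuclei (final 0.05% Triton X-100, 1% formaldehyde, 1 ug/ml Hoechst), and nuclei were counted on 4× images. Relative viability is the nuclei count in treated wells divided by the count in vehicle wells, and each value is the median of duplicate plates.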

[3] = compound: Cn1cncc1[C@@](N)(c1ccc(Cl)cc1)c1ccc2c(c1)c(-c1cccc(Cl)c1)cc(=O)n2C [Tipifarnib] + COc1cccc2cc(-c3nc([C@H]4CC[C@H](C(=O)O)CC4)n4ncnc(N)c34)[nH]c12 [OSI-027] (partner 0.5 µM)
How it was run: as §1

[4] = compound: Cn1cncc1[C@@](N)(c1ccc(Cl)cc1)c1ccc2c(c1)c(-c1cccc(Cl)c1)cc(=O)n2C [Tipifarnib] + CC(=O)Nc1cccc(-n2c(=O)n(C3CC3)c(=O)c3c(Nc4ccc(I)cc4F)n(C)c(=O)c(C)c32)c1 [Trametinib] (partner 0.02 µM)
How it was run: as §1

Cell Line	relative viability ([1]; 0.01 µM)	relative viability ([1]; 0.03162 µM)	relative viability ([1]; 0.1 µM)	relative viability ([1]; 0.3162 µM)	relative viability ([1]; 1 µM)	relative viability ([2]; first compound 0.01 µM)	relative viability ([2]; first compound 0.03162 µM)	relative viability ([2]; first compound 0.1 µM)	relative viability ([2]; first compound 0.3162 µM)	relative viability ([2]; first compound 1 µM)	relative viability ([3]; first compound 0.01 µM)	relative viability ([3]; first compound 0.03162 µM)	relative viability ([3]; first compound 0.1 µM)	relative viability ([3]; first compound 0.3162 µM)	relative viability ([3]; first compound 1 µM)	relative viability ([4]; first compound 0.01 µM)	relative viability ([4]; first compound 0.03162 µM)	relative viability ([4]; first compound 0.1 µM)	relative viability ([4]; first compound 0.3162 µM)	relative viability ([4]; first compound 1 µM)
201T	0.999	1.02	0.932	0.893	0.669	0.493	0.441	0.457	0.402	0.362	0.706	0.805	0.692	0.46	0.368	0.75	0.734	0.722	0.656	0.649
A549	1.01	0.853	0.563	0.417	0.251	0.181	0.116	0.108	0.0861	0.0622	–	–	–	–	–	–	–	–	–	–
A-427	1.12	0.981	0.987	0.826	0.609	0.31	0.272	0.319	0.227	0.226	0.406	0.316	0.365	0.361	0.254	0.872	0.758	0.633	0.654	0.549
ABC-1	0.959	–	0.88	0.756	0.663	0.241	–	0.264	0.242	0.231	0.554	–	0.414	0.32	0.267	–	–	–	–	–
BEN	1.2	1.03	0.926	0.853	0.752	0.294	0.272	0.273	0.255	0.262	0.296	0.289	0.303	0.262	0.309	0.95	0.87	0.873	0.856	0.761
CAL-12T	0.937	0.82	0.617	0.549	0.391	0.533	0.414	0.379	0.378	0.231	0.565	0.358	0.37	0.272	0.232	0.359	0.289	0.234	0.222	0.177
COR-L23	1.04	0.803	0.681	0.622	0.467	0.469	0.351	0.361	0.305	0.238	0.572	0.36	0.261	0.24	0.202	0.609	0.301	0.329	0.33	0.277
COR-L 105	0.935	0.807	0.734	0.696	0.571	0.387	0.389	0.447	0.339	0.281	0.759	0.588	0.5	0.427	0.417	0.409	0.491	0.427	0.43	0.369
Calu-6	0.931	0.767	0.688	0.572	0.579	–	–	–	–	–	–	–	–	–	–	–	–	–	–	–
ChaGo-K-1	0.993	1.02	1.08	0.928	0.547	0.451	0.518	0.464	0.412	0.273	0.483	0.548	0.602	0.442	0.332	0.96	0.942	0.868	0.853	0.674
EKVX	1.07	0.954	0.901	0.807	0.531	0.238	0.214	0.229	0.211	0.173	0.728	0.7	0.699	0.516	0.39	0.261	0.35	0.244	0.298	0.264
EMC-BAC-2	0.997	0.936	0.82	0.809	0.529	0.501	0.437	0.459	0.485	0.357	0.365	0.3	0.364	0.3	0.266	0.81	0.754	0.655	0.606	0.614
EPLC-272H	0.995	0.761	0.818	0.618	0.238	0.357	0.328	0.344	0.266	0.149	0.276	0.229	0.247	0.267	0.212	0.336	0.274	0.246	0.303	0.234
H3255	1.05	0.991	0.796	0.642	0.617	0.376	0.436	0.395	0.344	0.353	0.757	0.704	0.61	0.471	0.438	0.674	0.576	0.542	0.458	0.471
HARA	1.14	1.03	1.04	0.826	0.348	0.52	0.494	0.501	0.412	0.156	0.618	0.408	0.298	0.137	0.147	0.784	0.77	0.635	0.588	0.508
HCC-15	0.846	0.835	0.699	0.551	0.271	0.407	0.392	0.368	0.338	0.223	0.555	0.467	0.293	0.255	0.191	0.36	0.35	0.273	0.258	0.221
HCC-44	0.967	0.871	0.802	0.729	0.472	0.214	0.107	0.166	0.18	0.109	0.736	0.423	0.383	0.329	0.289	0.992	0.942	0.908	0.781	0.891
